Assay results reported in the NIST ThermoML archive (doi:10.1021/je200098d).
± gives the expanded uncertainty stated by the source.

Conditions: Liquid, Ebulliometric method (Recirculating still)

Structure (SMILES)	vapor or sublimation pressure (324.4 K)	vapor or sublimation pressure (333.4 K)	vapor or sublimation pressure (340 K)	vapor or sublimation pressure (345.5 K)	vapor or sublimation pressure (350.1 K)	vapor or sublimation pressure (354.1 K)	vapor or sublimation pressure (357.7 K)	vapor or sublimation pressure (360.9 K)	vapor or sublimation pressure (363.8 K)	vapor or sublimation pressure (332.4 K)	vapor or sublimation pressure (341.4 K)	vapor or sublimation pressure (348.3 K)	vapor or sublimation pressure (353.9 K)	vapor or sublimation pressure (358.5 K)	vapor or sublimation pressure (362.6 K)	vapor or sublimation pressure (366.2 K)	vapor or sublimation pressure (369.4 K)	vapor or sublimation pressure (372.4 K)
CCc1ccccc1 [ethylbenzene]	5 ± 0.1 kPa	7.5 ± 0.1 kPa	10 ± 0.1 kPa	12.5 ± 0.1 kPa	15 ± 0.1 kPa	17.5 ± 0.1 kPa	20 ± 0.2 kPa	22.5 ± 0.2 kPa	25 ± 0.2 kPa	–	–	–	–	–	–	–	–	–
C=Cc1ccccc1 [styrene]	–	–	–	–	–	–	–	–	–	5 ± 0.1 kPa	7.5 ± 0.1 kPa	10 ± 0.1 kPa	12.5 ± 0.1 kPa	15 ± 0.1 kPa	17.5 ± 0.1 kPa	20 ± 0.2 kPa	22.5 ± 0.2 kPa	25 ± 0.2 kPa
